The values below come from patent publication US20200164038A1, “MODIFIED NUCLEOSIDE, NUCLEOTIDE, AND NUCLEIC ACID COMPOSITIONS” (ModernaTX, Inc., priority 2011, published 2020).

One data set concerns Factor IX. In words: Factor IX mRNA transfected in serum-free media, peptide detection by MALDI. The data set is classed as cell-based, human. Particulars: 8 peptides detected, 7 unique to Factor IX. The text has this:
The cell culture supernatant was collected and subjected to trypsin digestion before undergoing 2-dimensional HPLC separation of the peptides Matrix-assisted laser desorption/ionization was used to detect the peptides. 8 peptides were detected and 7 of the detected peptides are unique to Factor IX.

Data set [1] can be described thus: In vivo study of Factor IX mmRNA IM, serum Factor IX. The settings on record: mice IM, 2×100 ug/mouse in formulation buffer, 13 hours. On the procedure: Human Factor IX mmRNA (Gen1; fully modified 5-methylcytosine and pseudouridine) formulated in formulation buffer was delivered to mice via intramuscular injection.
The mice were bled at 13 hours after the intramuscular injection to determine the concentration of human the polypeptide in serum in pg/mL.

For data set [2] the following is noted: for Serum Concentration 8-12 hours after administration: Factor IX; for Factor IX Protein Expression, Conc: mice IV, serum 8 hrs.
The nature of data set [3]: Intramuscular delivery of human EPO mRNA in buffer, serum human EPO. The data set is classed as in vivo, Sprague-Dawley rats. Particulars: rats, 100 μg, 13 hours. On the procedure: (§1) Mice were intramuscularly or subcutaneously injected with 50 μl of the modified human EPO mRNA (h-EPO), modified luciferase mRNA (Luc) or the formulation buffer (F.Buffer) as described in the dosing chart Table 58. 13 hours post injection blood was collected and serum was analyzed to determine the amount human EPO for each mouse or rat.

Data set [4] is described as follows: Intramuscular and subcutaneous delivery of human EPO mRNA in buffer, serum human EPO. Particulars: mice, 100 μg, 13 hours. In kind it is in vivo, C57/BL6 mice. As to the method:
as §1

Data set [5] is described as follows: Duration of activity after intramuscular delivery, serum human EPO. The data set is classed as in vivo, Sprague-Dawley rats. Particulars: rats, 100 μg, 24, 48 and 72 hour. As to the method:
The rats were bled 2, 6, 12, 24, 48 and 72 hours after the intramuscular injection to determine the concentration of human EPO in serum at a given time.

Data set [6] is described as follows: Human G-CSF modified RNA lipoplex comparison I.M., S.C., G-CSF ELISA 13 hours. The data set is classed as in vivo, C57/BL6 mice. Particulars: mice I.M. or S.C., 100 μg, saline or lipoplex. As to the method:
A formulation containing 100 μg of either modified human G-CSF mRNA lipoplexed with 30% by volume of RNAIMAX™ with a 5-methylcytosine (5mc) and a pseudouridine (ψ) modification (G-CSF-Gen1-Lipoplex), modified human G-CSF mRNA with a 5mc and ψ modification in saline (G-CSF-Gen1-Saline), modified human G-CSF mRNA with a N1-5-methylcytosine (N1-5mc) and a ψ modification lipoplexed with 30% by volume of RNAIMAX™ (G-CSF-Gen2-Lipoplex), modified human G-CSF mRNA with a N1-5mc and ψ modification in saline (G-CSF-Gen2-Saline), modified luciferase with a 5mc and ψ modification lipoplexed with 30% by volume of RNAIMAX™ (Luc-Lipoplex), or modified luciferase mRNA with a 5mc and ψ modification in saline (Luc-Saline) was delivered intramuscularly (I.M.) or subcutaneously (S.C.) and a control group for each method of administration was giving a dose of 80 uL of the formulation buffer (F. Buffer) to C57/BL6 mice. 13 hours post injection serum and tissue from the site of injection were collected from each mouse and analyzed by G-CSF ELISA to compare human G-CSF protein levels. The results of the human G-CSF protein in mouse serum from the intramuscular administration and the subcutaneous administration results are shown in Table 55.
(An ELISA detects its analyte on a solid surface through an enzyme-linked reagent.)

A further data set relates to IFN-alpha. In words: Cytokine study PBMC, IFN-alpha production ELISA. Particulars: human PBMC, Lipofectamine 2000. The data set is classed as cell-based. On the procedure: The plates were then incubated at 37 C.
Each condition was done in duplicate
Shown in Tables 69 and 70 are the average from 2 separate PBMC donors of the G-CSF and IFN-alpha production over time as measured by specific ELISA.

Data set [7] deals with peripheral blood mononuclear cells (PBMC). The data set can be described thus: Modified RNA transfected in PBMC: G-CSF by ELISA at 6 and 18 hours. The settings on record: Donor 2, 18 hours. In kind it is cell-based, human. As to the method:
(§2) 500 ng of G-CSF mRNA modified with 5-methylcytosine (5mC) and pseudouridine (pseudoU) or unmodified G-CSF mRNA was transfected with 0.4 uL of Lipofectamine 2000 into peripheral blood mononuclear cells (PBMC) from three normal blood donors (D1, D2, and D3). […] The supernatant was harvested 6 hours and 18 hours after transfection and run by ELISA to determine the protein expression. The expression of G-CSF, IFN-alpha, and TNF-alpha for Donor 1 is shown in Table 86, Donor 2 is shown in Table 87 and Donor 3 is shown in Table 88.

The test system is the same in data set [8]. In kind it is cell-based, human. As to the method:
as §2

The test system is the same in data set [9]. In words: In vitro PBMC study, percent modification: IFN-alpha and TNF-alpha by ELISA, PC ratio. The data set is classed as cell-based, human. As to the method:
The supernatant was harvested and run by ELISA 22 hours after transfection to determine the protein expression.

Another data set has as its system neutrophil count. In words: Intravenous administration of lipoplexed G-CSF mRNA, neutrophil count. The data set is classed as in vivo. The settings on record: mice IV, 50 ug RNA in 10% lipoplex at days 0, 2 and 4; day 5. On the procedure:
Neutrophils were measured at days 1, 5 and 8. Controls included non-specific mammalian RNA or the formulation buffer alone (F.Buffer). The mice were bled at days 1, 5 and 8 to determine the effect of mRNA-encoded human G-CSF to increase neutrophil count. The dosing regimen is shown in Table 64 as are the resulting neutrophil counts (thousands/uL; K/uL).

Where two headings read alike, the source gives them in different places.

Consider “Factor IX Gen 1: Factor IX mRNA SEQ ID NO 10, Cap1, fully modified with 5-methylcytosine and pseudouridine”, for which the “expression of Factor IX protein” value in the data set with Factor IX was “able to express full-length Factor IX protein”.
As for “Factor IX: human Factor IX mRNA, SEQ ID NO: 10, polyA about 160 nt, Cap1, fully modified with 5-methylcytosine and pseudouridine”, the “concentration of Factor IX in serum” value in data set [1] was 1600 pg/mL. Besides, the “Serum Concentration 8-12 hours after administration” value in [2] (IM, 2 × 100 ug) is around 1.6 ng/mL; in data set [2] (IV (LNP), 1 ug), around 40 ng/mL; in [2] (IV (LNP), 10 ug) it was around 400 ng/mL; in [2] (IV (LNP), 100 ug), ~3,000-10,000 ng/ml. For the same molecule, the “Factor IX Protein Expression, Conc” value in data set [2] (LNP NPA-029-1, 10 ug) was around 380 ng/mL; in [2] (LNP NPA-029-1, 100 ug), 3000 to 11000 ng/mL.
For the molecule Luc, the “human EPO in serum, Avg.” value came out at 24.5 pg/mL in data set [3] and 37.2 pg/mL in data set [5]. Besides, the entries for the “human EPO in serum, Geometric-mean” value in [3] and in data set [5] were 22.4 pg/mL and 29.2 pg/mL, respectively. Moreover, the entries for the “human EPO Average Level in serum” value in data set [4] (IM) and in [4] (SC) were 0 pg/mL and 26.7 pg/mL, respectively.

B1: Gen2 G-CSF mmRNA: human G-CSF mRNA, SEQ ID NO: 6, modified with 5-methylcytidine and N1-methylpseudouridine (nucleic acid, listed as Homo sapiens)
chain: GGGAAAUAAGAGAGAAAAGAAGAGUAAGAAGAAAUAUAAGAGCCACCAUGGCCGGUCCCGCGACCCAAAGCCCCAUGAAACUUAUGGCCCUGCAGUUGCUGCUUUGGCACUCGGCCCUCUGGACAGUCCAAGAAGCGACUCCUCUCGGACCUGCCUCAUCGUUGCCGCAGUCAUUCCUUUUGAAGUGUCUGGAGCAGGUGCGAAAGAUUCAGGGCGAUGGAGCCGCACUCCAAGAGAAGCUCUGCGCGACAUACAAACUUUGCCAUCCCGAGGAGCUCGUACUGCUCGGGCACAGCUUGGGGAUUCCCUGGGCUCCUCUCUCGUCCUGUCCGUCGCAGGCUUUGCAGUUGGCAGGGUGCCUUUCCCAGCUCCACUCCGGUUUGUUCUUGUAUCAGGGACUGCUGCAAGCCCUUGAGGGAAUCUCGCCAGAAUUGGGCCCGACGCUGGACACGUUGCAGCUCGACGUGGCGGAUUUCGCAACAACCAUCUGGCAGCAGAUGGAGGAACUGGGGAUGGCACCCGCGCUGCAGCCCACGCAGGGGGCAAUGCCGGCCUUUGCGUCCGCGUUUCAGCGCAGGGCGGGUGGAGUCCUCGUAGCGAGCCACCUUCAAUCAUUUUUGGAAGUCUCGUACCGGGUGCUGAGACAUCUUGCGCAGCCGUGAAGCGCUGCCUUCUGCGGGGCUUGCCUUCUGGCCAUGCCCUUCUUCUCUCCCUUGCACCUGUACCUCUUGGUCUUUGAAUAAAGCCUGAGUAGGAAG
modifications: 5-methylcytidine and N1-methylpseudouridine modified
For B1, the “human G-CSF protein production relative to 5-methylcytosine/pseudouridine modified human G-CSF mRNA” value in data set [6] is on record as “increased human G-CSF protein production”. Besides, in the data set on IFN-alpha, the “innate immune recognition, cytokines (IFN-alpha)” value is “did not significantly increase cytokines”.

B2: 100% modification: G-CSF mRNA (SEQ ID NO 6, Cap1) completely modified with 5mC and pseudoU (nucleic acid, listed as Homo sapiens)
chain: B1 chain
modifications: Cap1; 5-methylcytidine, pseudouridine
B2: in [7], the G-CSF amounted to 432 pg/mL. For the same molecule, in data set [8], the IFN-alpha is given as 1 pg/mL. In data set [9], the “TNF-alpha Expression” value turned out to be 11.1 pg/mL; the “better ratio of protein/cytokine production than natural G-CSF mRNA, IFN-alpha” value came out at 100 fold; the “better ratio of protein/cytokine production than natural G-CSF mRNA, TNF-alpha” value came to 27 fold.

B3: Unmodified G-CSF mRNA: human G-CSF mRNA, SEQ ID NO: 6, having no modifications (natural NTPs) (nucleic acid, listed as Homo sapiens)
chain: B1 chain
As for B3, in the data set on neutrophil count, the “increase in neutrophil count above control” value is recorded as “no pharmacologic effect on neutrophil counts”.
